According to patent publication US20150182492A1, “Ulcer Treatment” (United Arab Emirates University, priority 2013, published 2015):

Experiments:
[1] = test system: histamine stimulated gastric acid secretion from rat stomach; test: Gastric acid secretion measured in vivo (histamine stimulated); set-up: species or system rat (male Wistar); details: for Acid output, mean: histamine 2 mg/kg bolus; for Acid output compared to the histamine control (in words): treated orally, then challenged with histamine, FIGS. 1-3
Description: (§1) Male Wistar rats (weighing 200-225 g) were fasted for 24 hours in wire mesh cages to avoid coprophagy. The rats were obtained from the animal facilities of the Faculty of Medicine and Health Sciences of the United Arab Emirates (UAE) University. Materials
Groups of six rats were used for the experiment. Rats were initially anesthetized with urethane (1.5 g/kg) intraperitoneally. Following general anesthesia, a laparotomy was immediately performed followed by the insertion of a polyethylene tube at the pyloric end of the stomach. This tube was used to collect exudates from the stomach. An orogastric tube was inserted in the stomach via the esophagus. This tube was used to perfuse the stomach with saline (pH 7) at a constant rate of 7 mL/min at 37° C. Following perfusion, effluent samples were collected and titrated against 0.01 M NaOH every 15 minutes for acid secretion. After basal acid output for 1 hour, either saline, quercetin (50 mg/kg,), or diallyl sulfide (50 mg/kg), or allyl disulfide (10 mg/kg) at neutral pH was given orally and 30 minutes later, histamine (2 mg/kg) was administered as a bolus injection. Acid output was monitored continuously for 2 hours thereafter. The acid output was calculated and expressed as μmol (15 min^−1).

[2] = test system: gastric ulcer formation in rat stomachs; test: Antiulcer activity, acidified ethanol-induced gastric ulcer; type: in vivo, rat (male Wistar); set-up: key to Ulcer Index, Mean: total length of hemorrhagic lesions (mm) = ulcer index; details: for Ulcer index compared to the control (in words): acidified ethanol model, rats; for Ulcer Index, Mean: 30 min before acidified ethanol, control 95.00
Description: as §1
Rats were divided into groups of six to seven animals for each experiment. Each group received either neutral pH physiologic saline (1 mL) or water extract of either quercetin, diallyl sulfide or allyl disulfide (1 mg/kg, 10 mg/kg, 50 mg/kg or 100 mg/kg; six rats for each dose) by gastric gavage. Two additional comparison groups received either the proton pump inhibitor Lansoprazole (10 mg/kg) or the H2-receptor antagonist Ranitidine (20 mg/kg). After 30 minutes of the treatment, 1 mL of acidified ethanol (60% ethanol with 150 mM HCl), an ulcerogenic agent, was administered orally to the animals. The animals were sacrificed 1 hour later by increasing the dose of the anaesthesia. The abdomen was incised, and the stomachs removed, cut open along the greater curvature, and rinsed with saline to remove any adherent particles and mucus. The open stomach was spread on a sheet of cork so as to have a clear view of gastric lesions in the gastric mucosa. The total lengths of hemorrhagic lesions, which were approximately 1 mm in length and formed in the glandular portion of the gastric mucosa, were taken as ulcer index. An observer who was unaware of the drug treatments confirmed the ulcer index. The percentage reduction of the ulcer index in the drug-treated groups was calculated from the saline treated groups. The use of 60% ethanol in 150 mM HCl to produce an ulcerogenic effect was based on earlier observation that ethanol 50% and over provided a reproducible model of gastric damage.

[3] = dose 10 mg/kg by gastric gavage
[4] = dose 50 mg/kg by gastric gavage
[5] = dose 100 mg/kg by gastric gavage

Compound	Acid output compared to the histamine control (in words) [1]	Ulcer index compared to the control (in words) [2]	Ulcer Index, Mean ([2]; dose 1 mg/kg by gastric gavage)	Ulcer Index, Mean [2, 3]	Ulcer Index, Mean [2, 4]	Ulcer Index, Mean [2, 5]	Acid output, mean ([1]; time 0 min, 50 mg/kg oral)	Acid output, mean ([1]; time 30 min, 50 mg/kg oral)	Acid output, mean ([1]; time 45 min, 50 mg/kg oral)	Acid output, mean ([1]; time 60 min, 50 mg/kg oral)	Acid output, mean ([1]; time 75 min, 50 mg/kg oral)	Acid output, mean ([1]; time 90 min, 50 mg/kg oral)	Acid output, mean ([1]; time 105 min, 50 mg/kg oral)	Acid output, mean ([1]; time 120 min, 50 mg/kg oral)	Acid output, mean ([1]; time 135 min, 50 mg/kg oral)	Acid output, mean ([1]; time 150 min, 50 mg/kg oral)	also measured
C=CCSSCC=C [Allyl disulfide]	reduced acid output compared to the histamine control	significantly reduced ulcer index compared to the control	11.67	0.00	8.33	11.00											Acid output, mean ([1]; time 0 min, 10 mg/kg oral): 2.154 μmol (15 min^−1); Acid output, mean ([1]; time 30 min, 10 mg/kg oral): 3.514 μmol (15 min^−1); Acid output, mean ([1]; time 45 min, 10 mg/kg oral): 2.458 μmol (15 min^−1); Acid output, mean ([1]; time 60 min, 10 mg/kg oral): 2.085 μmol (15 min^−1); Acid output, mean ([1]; time 75 min, 10 mg/kg oral): 2.701 μmol (15 min^−1); Acid output, mean ([1]; time 90 min, 10 mg/kg oral): 2.77 μmol (15 min^−1); Acid output, mean ([1]; time 105 min, 10 mg/kg oral): 2.648 μmol (15 min^−1); Acid output, mean ([1]; time 120 min, 10 mg/kg oral): 1.431 μmol (15 min^−1); Acid output, mean ([1]; time 135 min, 10 mg/kg oral): 1.286 μmol (15 min^−1); Acid output, mean ([1]; time 150 min, 10 mg/kg oral): 1.34 μmol (15 min^−1)
C=CCSCC=C [Allyl sulfide, Diallyl sulfide]	reduced acid output compared to the histamine control	significantly reduced ulcer index compared to the control	114.83	72.33	5.50	13.00	1.926 μmol (15 min^−1)	3.328 μmol (15 min^−1)	2.023 μmol (15 min^−1)	1.742 μmol (15 min^−1)	1.901 μmol (15 min^−1)	1.627 μmol (15 min^−1)	1.761 μmol (15 min^−1)	1.883 μmol (15 min^−1)	2.301 μmol (15 min^−1)	1.525 μmol (15 min^−1)	
Cc1c(OCC(F)(F)F)ccnc1C[S+]([O-])c1nc2ccccc2[nH]1 (centres unmarked) [Lansoprazole, reference compound]				13.00													
O=c1c(O)c(-c2ccc(O)c(O)c2)oc2cc(O)cc(O)c12 [Quercetin]	reduced acid output compared to the histamine control	significantly reduced ulcer index compared to the control	34.00	34.00	21.83	31.17	1.633 μmol (15 min^−1)	3.323 μmol (15 min^−1)	1.299 μmol (15 min^−1)	5.507 μmol (15 min^−1)	2.579 μmol (15 min^−1)	1.84 μmol (15 min^−1)	1.868 μmol (15 min^−1)	2.213 μmol (15 min^−1)	1.927 μmol (15 min^−1)	1.497 μmol (15 min^−1)	
CNC(=C[N+](=O)[O-])NCCSCc1ccc(CN(C)C)o1 [Ranitidine, reference compound]																	Ulcer Index, Mean ([2]; dose 20 mg/kg): 28.50
